# Experimental data as given in PMC6529423, “The extracellular gate shapes the energy profile of an ABC exporter” (Nature Communications, 2019).
# Target: T1, EfrEF (Enterococcus faecalis, UniProt Q832J9+Q832K0)
# T1 construct: gene EF_2226; heterodimeric ABC exporter, expressed in Lactococcus lactis NZ9000 from pNZ8048NH3, purified in DDM, reconstituted in proteoliposomes
# Test: ATPase stimulation in proteoliposomes; also ethidium efflux from L. lactis cells
# Assay type: biochemical
# Details: 1 mM ATP, 10 mM MgSO4, 50 mM HEPES pH 7.0, 30 °C; stimulator of ATPase
# T1 sequence (Q832K0 entry or part of it): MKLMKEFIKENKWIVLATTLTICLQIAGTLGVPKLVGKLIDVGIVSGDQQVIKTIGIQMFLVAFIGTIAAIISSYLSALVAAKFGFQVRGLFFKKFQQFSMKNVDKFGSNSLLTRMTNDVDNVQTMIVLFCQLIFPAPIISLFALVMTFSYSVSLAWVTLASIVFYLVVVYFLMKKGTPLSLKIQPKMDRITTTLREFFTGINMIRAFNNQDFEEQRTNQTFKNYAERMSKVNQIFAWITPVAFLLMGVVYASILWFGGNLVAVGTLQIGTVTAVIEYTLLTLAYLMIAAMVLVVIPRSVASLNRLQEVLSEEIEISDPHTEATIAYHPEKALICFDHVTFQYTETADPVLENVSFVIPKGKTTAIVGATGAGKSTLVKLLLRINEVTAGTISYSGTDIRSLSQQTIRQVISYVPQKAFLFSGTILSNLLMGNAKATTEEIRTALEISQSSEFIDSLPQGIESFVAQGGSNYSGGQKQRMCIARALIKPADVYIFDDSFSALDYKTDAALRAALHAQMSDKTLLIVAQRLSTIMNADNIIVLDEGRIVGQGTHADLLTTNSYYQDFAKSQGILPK
# T1 sequence (Q832J9 entry or part of it): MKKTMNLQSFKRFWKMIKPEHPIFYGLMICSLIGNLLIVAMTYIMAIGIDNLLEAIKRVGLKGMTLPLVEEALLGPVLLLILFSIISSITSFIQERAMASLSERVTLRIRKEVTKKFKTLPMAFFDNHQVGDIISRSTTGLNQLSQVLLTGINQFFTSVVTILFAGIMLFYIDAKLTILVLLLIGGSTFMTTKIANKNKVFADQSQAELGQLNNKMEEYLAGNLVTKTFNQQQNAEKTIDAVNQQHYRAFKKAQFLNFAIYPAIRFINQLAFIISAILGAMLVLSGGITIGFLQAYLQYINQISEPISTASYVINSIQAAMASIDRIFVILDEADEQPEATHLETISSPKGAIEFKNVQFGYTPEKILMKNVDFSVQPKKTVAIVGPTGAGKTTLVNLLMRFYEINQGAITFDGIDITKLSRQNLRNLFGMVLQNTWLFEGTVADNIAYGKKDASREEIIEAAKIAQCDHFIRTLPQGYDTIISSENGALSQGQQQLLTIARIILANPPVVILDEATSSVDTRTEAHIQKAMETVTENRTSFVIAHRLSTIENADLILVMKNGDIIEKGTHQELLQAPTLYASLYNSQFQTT
compound,measurement,value
CC[n+]1c(-c2ccccc2)c2cc(N)ccc2c2ccc(N)cc21 [ethidium],ATPase stimulation in proteoliposomes; also ethidium efflux from L. lactis cells,Wild-type EfrEF efficiently expels ethidium from the cell
